# Test results taken from publication PMC8536124 (International Journal of Molecular Sciences, 2021).
# Marks after values point to notes of the source that are not given here.
# Assays:
# [1] = system: K-562; assay: NCI-60 screening (SRB); type: cell-based, human
# [2] = system: NCI-H226; assay: NCI-60 screening (SRB); type: cell-based, human; conditions: five-dose
# [3] = system: NCI-H322M; assay: NCI-60 screening (SRB); type: cell-based, human; conditions: five-dose
# [4] = system: NCI-H460; assay: NCI-60 screening (SRB); type: cell-based, human; conditions: five-dose
# [5] = system: SNB-75; assay: NCI-60 screening (SRB); type: cell-based, human; conditions: five-dose
# [6] = system: LOX IMVI; assay: NCI-60 screening (SRB); type: cell-based, human
# [7] = system: M14; assay: NCI-60 screening (SRB); type: cell-based, human; conditions: five-dose
# [8] = system: UACC-257; assay: NCI-60 screening (SRB); type: cell-based, human; conditions: five-dose
# [9] = system: UACC-62; assay: NCI-60 screening (SRB); type: cell-based, human; conditions: five-dose
# [10] = system: OVCAR-8; assay: NCI-60 screening (SRB); type: cell-based, human; conditions: five-dose
# [11] = system: SK-OV-3; assay: NCI-60 screening (SRB); type: cell-based, human; conditions: five-dose
# [12] = system: CAKI-1; assay: NCI-60 screening (SRB); type: cell-based, human; conditions: CAKI-1, five-dose
# [13] = system: DU-145; assay: NCI-60 screening (SRB); type: cell-based, human; conditions: five-dose
# [14] = system: MCF7; assay: NCI-60 screening (SRB); type: cell-based, human; conditions: five-dose
# [15] = system: A375 cells; assay: Cell morphology and confluence; type: cell-based, human; conditions: 24 h
# Protocol: A morphological examination of the tested cells was conducted in order to provide additional data for the investigated compounds in terms of their biological activity.
# [16] = system: BAK gene, A375; assay: Gene expression by qRT-PCR; type: cell-based, human; conditions: 1 μM, mean 2^∆∆Ct, DMSO 5.200
# Description: (§1) Apoptosis at the cellular level can be initiated through the mitochondrial intrinsic pathway, which involves the Bcl-2 family of genes that includes the anti-apoptotic Bcl-XL and Bcl-2, as well as the pro-apoptotic Bak and Bax members; the balance between the expressions of anti- and pro-apoptotic proteins ensures physiological cell death. In cancers, the alterations occurring in gene expressions due to down- or up-regulations may result in delayed apoptosis and malignant proliferation. Thus, active compounds that modify the abnormal expression of genes involved in the apoptotic process may successfully act as anticancer agents. We tested the effect of compounds 4 and 6 on the expression of anti-apoptotic (Bcl-XL and Bcl-2) and pro-apoptotic (Bak and Bax) genes (Table 4, Figure 8).
# (§2) Total RNA was extracted using peqGold RNAPureTM Package (Peqlab Biotechnology GmbH, Erlangen, Germany) according to the manufacturer’s instructions, and a DS-11 spectrophotometer (DeNovix, Wilmington, DE, USA) was used to measure total concentration of RNA. Reverse transcription was performed using the Maxima® First Strand cDNA Synthesis Kit (Fermentas, St. Leon-Rot, Germany), and the mix was incubated in the Tadvanced biometra product line (Analytik Jena AG, Jena, Germany) with a thermal program of 25 °C for 10 min, 85 °C for 5 min. Quantitative real-time PCR was conducted in a Quant Studio 5 real-time PCR system, (Thermo Fisher Scientific, Inc., Waltham, MA, USA), with analysis being performed in 20 µL reactions containing Power SYBR-Green PCR Master Mix (Thermo Fisher Scientific, Inc.). Cycling conditions were: 95 °C for 10 s followed by 40 cycles of denaturing at 95 °C for 15 s, and annealing and extension at 60 °C for 1 min.
# [17] = system: BAK gene, RPMI; assay: Gene expression by qRT-PCR; type: cell-based, human; conditions: 1 μM, mean 2^∆∆Ct, DMSO 4.163
# Description: as §1, §2
# [18] = system: BAK gene, SK-Mel-28; assay: Gene expression by qRT-PCR; type: cell-based, human; conditions: 1 μM, mean 2^∆∆Ct, DMSO 1.383
# Description: as §1, §2
# [19] = system: BAX gene, A375; assay: Gene expression by qRT-PCR; type: cell-based, human; conditions: 1 μM, mean 2^∆∆Ct, DMSO 4.063
# Description: as §1, §2
# [20] = system: BAX gene, RPMI; assay: Gene expression by qRT-PCR; type: cell-based, human; conditions: 1 μM, mean 2^∆∆Ct, DMSO 3.040
# Description: as §1, §2
# [21] = system: BAX gene, SK-Mel-28; assay: Gene expression by qRT-PCR; type: cell-based, human; conditions: 1 μM, mean 2^∆∆Ct, DMSO 2.086
# Description: as §1, §2
# [22] = system: Bcl-2 gene, A375; assay: Gene expression by qRT-PCR; type: cell-based, human; conditions: 1 μM, mean 2^∆∆Ct, DMSO 2.216
# Description: as §1, §2
# [23] = system: Bcl-2 gene, RPMI; assay: Gene expression by qRT-PCR; type: cell-based, human; conditions: 1 μM, mean 2^∆∆Ct, DMSO 4.063
# Description: as §1, §2
# [24] = system: Bcl-2 gene, SK-Mel-28; assay: Gene expression by qRT-PCR; type: cell-based, human; conditions: 1 μM, mean 2^∆∆Ct, DMSO 2.573
# Description: as §1, §2
# [25] = system: Bcl-XL gene, A375; assay: Gene expression by qRT-PCR; type: cell-based, human; conditions: 1 μM, mean 2^∆∆Ct, DMSO 4.550
# Description: as §1, §2
# [26] = system: Bcl-XL gene, SK-Mel-28; assay: Gene expression by qRT-PCR; type: cell-based, human; conditions: 1 μM, mean 2^∆∆Ct, DMSO 4.730
# Description: as §1, §2
# [27] = system: chorioallantoic membrane; assay: HET-CAM irritation assay
# Description: In this assay, the irritation potential may range from 0 to 21, with 0 being non-irritant and 21 being the most irritant. […] The irritation score was established according to Luepke scale: 0–0.9 indicates non-irritant, 1–4.9 indicates weakly irritant, 5–8.9 indicates moderately irritant, while 9–21 means strongly irritant (Table 6) [88, 89].
# The in vivo Hen’s Egg Chorioallantoic Membrane Test (HET-CAM) assay determines a potential irritant effect on the vascular plexus of the chorioallantoic membrane [94]. The HET-CAM method was carried out following ICCVAM recommendations published in November 2016 in Appendix G and adapted to our conditions [88, 95, 96]. Thus, a volume of 300 µL of control or test solution was applied and the modifications produced at the CAM level were monitored by means of stereomicroscopy (Discovery 8 Stereomicroscope, Zeiss), registering significant images (Axio CAM 105 color, Zeiss), before application after 5 min of contact with the samples. All images were processed using Zeiss ZEN software, Gimp 2.8, and ImageJ software.
# Negative control was represented by distilled water and solvent control DMSO 0.5%, and positive control by sodium lauryl sulphate (SLS) 0.5% in distillate water. The test substances were tested in concentrations of 1 µM.
# Finally, the following reactions were: hemorrhage—H (blood vessel bleeding), vascular lysis—L (disintegration of blood vessels), coagulation—C (intra- or extra-vascular protein denaturizing). A variety of analysis methods may be used to assess irritancy potential of test substances. One analysis method that has been used extensively is an irritation score (IS). The formula used to generate an IS value is:(1) IS=5×301−Sec H/300+7×300−Sec L/300+9×301−Sec C/300 where: H = hemorrhage; L = vessel lysis; C = coagulation; hemorrhage time (Sec H) = onset of hemorrhage reactions on CAM (in seconds); lysis time (Sec L) = onset of vessel lysis on CAM (in seconds); coagulation time (Sec C) = onset of coagulation formation on CAM (in seconds). Means values are obtained. […] The IS values range on a scale between 0 and 21.
# [28] = Homo sapiens, read-out: LC50 (the source's name)
smiles,measurement,setting,value
"CCN1CCN(C(=O)[C@]23CC[C@@H](C)[C@H](C)[C@H]2C2=CC[C@@H]4[C@@]5(C)CCC(=O)C(C)(C)[C@@H]5CC[C@@]4(C)[C@]2(C)CC3)CC1 [Compound 4, N-(3-oxo-ursan-12-en-28-oyl)-ethylpiperazine]",GI50,"[1]; Homo sapiens, K562, five-dose",0.98 µM
same,CC50,"[1]; Homo sapiens, K562, five-dose, read-out: LC50 (the source's name)",4.84 µM
same,TGI,[1]; five-dose,2.18 µM
same,GI50,[2]; Homo sapiens,1.78 µM
same,CC50,[2]; [28],28.7 µM
same,TGI,[2],7.01 µM
same,GI50,[3]; Homo sapiens,1.57 µM
same,CC50,[3]; [28],16.8 µM
same,TGI,[3],5.43 µM
same,GI50,[4]; Homo sapiens,0.913 µM
same,CC50,[4]; [28],3.27 µM
same,TGI,[4],1.75 µM
same,GI50,[5]; Homo sapiens,1.03 µM
same,CC50,[5]; [28],17.2 µM
same,TGI,[5],3.82 µM
same,GI50,"[6]; Homo sapiens, LOX IMVI, five-dose",0.821 µM
same,CC50,"[6]; Homo sapiens, LOX IMVI, five-dose, read-out: LC50 (the source's name)",2.8 µM
same,TGI,"[6]; LOX IMVI, five-dose",1.52 µM
same,Growth %,"[6]; LOXIMVI (Melanoma), 1 dose 10 µM",−85.17%
same,GI50,[7]; Homo sapiens,0.794 µM
same,CC50,[7]; [28],3.28 µM
same,TGI,[7],1.61 µM
same,GI50,[8]; Homo sapiens,0.985 µM
same,CC50,[8]; [28],4.88 µM
same,TGI,[8],2.19 µM
same,GI50,[9]; Homo sapiens,0.835 µM
same,CC50,[9]; [28],3.09 µM
same,TGI,[9],1.61 µM
same,GI50,[10]; Homo sapiens,1.1 µM
same,CC50,[10]; [28],30.1 µM
same,TGI,[10],2.89 µM
same,GI50,[11]; Homo sapiens,1.15 µM
same,CC50,[11]; [28],17.2 µM
same,TGI,[11],4.83 µM
same,TGI,[12],2.96 µM
same,GI50,[12]; Homo sapiens,0.946 µM
same,CC50,[12]; [28],11.2 µM
same,GI50,[13]; Homo sapiens,1.67 µM
same,CC50,[13]; [28],18.6 µM
same,TGI,[13],5.62 µM
same,GI50,[14]; Homo sapiens,0.892 µM
same,CC50,[14]; [28],4.63 µM
same,TGI,[14],2.03 µM
same,cell morphology and confluence,[15]; 0.1 μM,caused cell death
same,cell morphology and confluence,[15]; 1 and 5 μM,visible loss of cell confluence
same,"Expression of BAK gene, Mean",[16],0.706 ***
same,"Expression of BAK gene, Mean",[17],156.243 ***
same,"Expression of BAK gene, Mean",[18],101.820 **
same,"Expression of BAX gene, Mean",[19],0.270 ***
same,"Expression of BAX gene, Mean",[20],0.460 **
same,"Expression of BAX gene, Mean",[21],0.023 ***
same,"Expression of Bcl-2 gene, Mean",[22],0.7366 **
same,"Expression of Bcl-2 gene, Mean",[23],1.483 *
same,"Expression of Bcl-2 gene, Mean",[24],0.083 *
same,"Expression of Bcl-XL gene, Mean",[25],0.500 *
same,"Expression of Bcl-XL gene, Mean",[26],0.086 ***
same,Irritation Score,"[27]; 300 µL, 5 min, test compounds 1 µM, scale 0 to 21",0
same,Type of Effect,[27]; Luepke scale,Non-irritant
